Laboratory results taken from US9868738B2, “Diazine-fused amidines as BACE inhibitors, compositions, and their use” (Merck Sharp & Dohme Corp., priority 2014, dated 2018).

Tests used:
[1] = biological target: soluble human BACE1 catalytic domain (Homo sapiens (Human), UniProt P56817); assay: BACE-1 Ki Assay (BACE-1 HTRF FRET Assay); assay type: biochemical; details: Ki calculated from IC50 using the Cheng-Prusoff equation; QSY7-APPswe-Eu substrate 200 nM, pH 5.0
Protocol: In another embodiment, the compounds of the invention comprise the example compounds shown in the table below, or a tautomer thereof, or a pharmaceutically acceptable salt of said compound or said tautomer. Examples 2 to 42 were prepared using the method similar to Ex. 1. Example 44 to 51 were synthesized using the method similar to Ex. 43. BACE-1 values reported in this table were measured using BACE-1 Ki Assay (BACE-1 HTRF FRET Assay).
• Reagents: Na^+-Acetate pH 5.0; 1% Brij-35; Glycerol; Dimethyl Sulfoxide (DMSO); Recombinant human soluble BACE1 catalytic domain (>95% pure); APP Swedish mutant peptide substrate (QSY7-APP^swe-Eu): QSY7-EISEVNLDAEFC-Europium-amide.
A homogeneous time-resolved FRET assay can be used to determine IC50 values for inhibitors of the soluble human BACE1 catalytic domain. This assay monitors the increase of 620 nm fluorescence that resulted from BACE1 cleavage of an APPswedish APP^swe mutant peptide FRET substrate (QSY7-EISEVNLDAEFC-Europium-amide). This substrate contains an N-terminal QSY7 moiety that serves as a quencher of the C-terminal Europium fluorophore (620 nm Em). In the absence of enzyme activity, 620 nm fluorescence is low in the assay and increased linearly over 3 hours in the presence of uninhibited BACE1 enzyme. Inhibition of BACE1 cleavage of the QSY7-APP^swe-Eu substrate by inhibitors is manifested as a suppression of 620 nm fluorescence.
Varying concentrations of inhibitors at 3× the final desired concentration in a volume of 10 ul are preincubated with purified human BACE1 catalytic domain (3 nM in 10 μl) for 30 minutes at 30° C. in reaction buffer containing 20 mM Na-Acetate pH 5.0, 10% glycerol, 0.1% Brij-35 and 7.5% DSMO. Reactions are initiated by addition of 10 μl of 600 nM QSY7-APP^swe-Eu substrate (200 nM final) to give a final reaction volume of 30 μl in a 384 well Nunc HTRF plate. The reactions are incubated at 30° C. for 1.5 hours. The 620 nm fluorescence is then read on a Rubystar HTRF plate reader (BMG Labtechnologies) using a 50 millisecond delay followed by a 400 millisecond acquisition time window. Inhibitor IC50 values are derived from non-linear regression analysis of concentration response curves. Ki values are then calculated from IC50 values using the Cheng-Prusoff equation using a previously determined […] of 8 μM for the QSY7-APP^swe-Eu substrate at BACE1.

[2] = biological target: purified human autoBACE-2 (Homo sapiens (Human), UniProt Q9Y5Z0); assay: BACE-2 Assay (BACE-HTRF assay); assay type: biochemical; details: Ki calculated from IC50 using the Cheng-Prusoff equation; QSY7-EISEVNLDAEFC-Eu-amide substrate 200 nM, pH 5.0
Protocol: Inhibitor IC50s at purified human autoBACE-2 are determined in a time-resolved endpoint proteolysis assay that measures hydrolysis of the QSY7-EISEVNLDAEFC-Eu-amide FRET peptide substrate (BACE-HTRF assay). BACE-mediated hydrolysis of this peptide results in an increase in relative fluorescence (RFU) at 620 nm after excitation with 320 nm light. Inhibitor compounds, prepared at 3× the desired final concentration in 1×BACE assay buffer (20 mM sodium acetate pH 5.0, 10% glycerol, 0.1% Brij-35) supplemented with 7.5% DMSO are pre-incubated with an equal volume of autoBACE-2 enzyme diluted in 1×BACE assay buffer (final enzyme concentration 1 nM) in black 384-well NUNC plates for 30 minutes at 30° C. […] DMSO is present at […] final concentration in the assay. Following laser excitation of sample wells at 320 nm, the fluorescence signal at 620 nm is collected for 400 ms following a 50 μs delay on a RUBYstar HTRF plate reader (BMG Labtechnologies). Raw RFU data is normalized to maximum (1.0 nM BACE/DMSO) and minimum (no enzyme/DMSO) RFU values. IC50s are determined by nonlinear regression analysis (sigmoidal dose response, variable slope) of percent inhibition data with minimum and maximum values set to 0 and 100 percent respectively. Similar IC50s are obtained when using raw RFU data. The Ki values are calculated from the IC50 using the Cheng-Prusoff equation.

Chain of purified human autoBACE-2 (Q9Y5Z0 63-473 limits assumed): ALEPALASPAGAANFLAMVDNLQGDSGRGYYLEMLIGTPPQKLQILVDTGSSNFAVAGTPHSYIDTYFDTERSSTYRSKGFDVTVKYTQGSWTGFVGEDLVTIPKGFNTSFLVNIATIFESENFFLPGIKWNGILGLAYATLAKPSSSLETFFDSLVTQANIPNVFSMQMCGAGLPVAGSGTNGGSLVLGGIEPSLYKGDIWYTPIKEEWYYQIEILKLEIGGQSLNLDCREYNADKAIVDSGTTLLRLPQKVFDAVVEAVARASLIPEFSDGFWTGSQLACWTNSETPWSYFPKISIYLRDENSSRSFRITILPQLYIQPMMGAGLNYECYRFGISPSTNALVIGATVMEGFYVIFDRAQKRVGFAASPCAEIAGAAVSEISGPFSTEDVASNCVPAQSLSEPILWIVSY
Chain of soluble human BACE1 catalytic domain (P56817 75-416): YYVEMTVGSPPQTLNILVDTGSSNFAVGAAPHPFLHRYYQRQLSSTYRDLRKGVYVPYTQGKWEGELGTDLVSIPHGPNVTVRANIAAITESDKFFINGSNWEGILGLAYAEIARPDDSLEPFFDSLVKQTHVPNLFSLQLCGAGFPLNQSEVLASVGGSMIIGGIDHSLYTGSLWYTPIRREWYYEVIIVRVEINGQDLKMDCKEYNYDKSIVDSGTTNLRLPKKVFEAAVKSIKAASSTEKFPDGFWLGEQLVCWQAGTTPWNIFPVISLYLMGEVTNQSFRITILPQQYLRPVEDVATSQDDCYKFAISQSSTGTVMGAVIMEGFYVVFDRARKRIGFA

SMILES | Ki [1] [nM] | Ki [2] [nM]
C[C@@]1(c2cc(-c3cncc(Cl)c3)ccc2F)Cc2ncncc2C(=N)N1 [Example 4, (7S)-7-[5-(5-chloropyridin-3-yl)-2-fluoro-phenyl]-7-methyl-7,8-dihydropyrido[4,3-d]pyrimidin-5(6H)-imine] | 253 | 130
COc1cccc(-c2ccc(F)c([C@]3(C)Cc4ncncc4C(=N)N3)c2)c1 [Example 5, (7S)-7-(4-fluoro-3′-methoxybiphenyl-3-yl)-7-methyl-7,8-dihydro-pyrido[4,3-d]pyrimidin-5(6H)-imine] | 199 | 53.5
C[C@@]1(c2cc(-c3cccc(C(F)(F)F)c3)ccc2F)Cc2ncncc2C(=N)N1 [Example 6, (7S)-7-[4-fluoro-3′-(trifluoromethyl)biphenyl-3-yl]-7-methyl-7,8-dihydropyrido[4,3-d]pyrimidin-5(6H)-imine] | 3040 | 549
C[C@@]1(c2cc(-c3cncnc3)ccc2F)Cc2ncncc2C(=N)N1 [Example 7, (7S)-7-(2-fluoro-5-pyrimidin-5-ylphenyl)-7-methyl-7,8-dihydro-pyrido[4,3-d]pyrimidin-5(6H)-imine] | 771 | 3460
COc1cncc(-c2ccc(F)c([C@]3(C)Cc4ncncc4C(=N)N3)c2)c1 [Example 8, (7S)-7-[2-fluoro-5-(5-methoxypyridin-3-yl)phenyl]-7-methyl-7,8-dihydropyrido[4,3-d]pyrimidin-5(6H)-imine] | 225 | 87.8
C[C@@]1(c2cc(-c3cncc(C#N)c3)ccc2F)Cc2ncncc2C(=N)N1 [Example 9, 5-{4-fluoro-3-[(7S)-5-imino-7-methyl-5,6,7,8-tetrahydropyrido[4,3-d]pyrimidin-7-yl]phenyl}pyridine-3-carbonitrile] | 601 | 483
C[C@@]1(c2cc(-c3cccnc3)ccc2F)Cc2ncncc2C(=N)N1 [Example 10, (7S)-7-(2-fluoro-5-pyridin-3-ylphenyl)-7-methyl-7,8-dihydropyrido[4,3-d]pyrimidin-5(6H)-imine] | 746 | 1180
C[C@@]1(c2cc(-c3cccc(C#N)c3)ccc2F)Cc2ncncc2C(=N)N1 [Example 11, 4′-fluoro-3′-[(7S)-5-imino-7-methyl-5,6,7,8-tetrahydropyrido[4,3-d]pyrimidin-7-yl]biphenyl-3-carbonitrile] | 827 | 259
CC#Cc1cncc(-c2ccc(F)c([C@]3(C)Cc4ncncc4C(=N)N3)c2)c1 [Example 12, (7S)-7-[2-fluoro-5-(5-prop-1-yn-1-ylpyridin-3-yl)phenyl]-7-methyl-7,8-dihydropyrido[4,3-d]pyrimidin-5(6H)-imine] | 108 | 20.2
C[C@@]1(c2sc(-c3cccc(C#N)c3)cc2Cl)Cc2ncncc2C(=N)N1 [Example 13, 3-{4-chloro-5-[(7S)-5-imino-7-methyl-5,6,7,8-tetrahydropyrido[4,3-d]pyrimidin-7-yl]thiophen-2-yl}benzonitrile] | 35.2 | 15.1
C[C@@]1(c2sc(-c3cncc(C#N)c3)cc2Cl)Cc2ncncc2C(=N)N1 [Example 14, 5-{4-chloro-5-[(7S)-5-imino-7-methyl-5,6,7,8-tetrahydropyrido[4,3-d]pyrimidin-7-yl]thiophen-2-yl}pyridine-3-carbonitrile] | 75.2 | 31.6
C[C@@]1(c2sc(-c3cccc(-c4nnco4)c3)cc2Cl)Cc2ncncc2C(=N)N1 [Example 15, (7S)-7-{3-chloro-5-[3-(1,3,4-oxadiazol-2-yl)phenyl]thiophen-2-yl}-7-methyl-7,8-dihydropyrido[4,3-d]pyrimidin-5(6H)-imine] | 11.1 | 37.3
C[C@@]1(c2sc(-c3ccc(F)c(C#N)c3)cc2Cl)Cc2ncncc2C(=N)N1 [Example 16, 5-{4-chloro-5-[(7S)-5-imino-7-methyl-5,6,7,8-tetrahydropyrido[4,3-d]pyrimidin-7-yl]thiophen-2-yl}-2-fluorobenzonitrile] | 36.4 | 16.7
C[C@@]1(c2sc(-c3cc(F)cc(-c4nnco4)c3)cc2Cl)Cc2ncncc2C(=N)N1 [Example 17, (7S)-7-{3-chloro-5-[3-fluoro-5-(1,3,4-oxadiazol-2-yl)phenyl]thiophen-2-yl}-7-methyl-7,8-dihydropyrido[4,3-d]pyrimidin-5(6H)-imine] | 16.5 | 21.6
C[C@]1(c2cc(-c3cccc(C#N)c3)cs2)NC(=N)c2cncnc2C1(F)F [Example 18, 3-{5-[(7S)-8,8-difluoro-5-imino-7-methyl-5,6,7,8-tetrahydropyrido[4,3-d]pyrimidin-7-yl]thiophen-3-yl}benzonitrile] | 81.5 | 39.8
C[C@]1(c2sc(-c3cccc(C#N)c3)cc2Cl)NC(=N)c2cncnc2C1(F)F [Example 19, 3-{4-chloro-5-[(7S)-8,8-difluoro-5-imino-7-methyl-5,6,7,8-tetrahydropyrido[4,3-d]pyrimidin-7-yl]thiophen-2-yl}benzonitrile] | 246 | 128
C[C@]1(c2sc(-c3cccc(-c4nnco4)c3)cc2Cl)NC(=N)c2cncnc2C1(F)F [Example 20, (7S)-7-{3-chloro-5-[3-(1,3,4-oxadiazol-2-yl)phenyl]thiophen-2-yl}-8,8-difluoro-7-methyl-7,8-dihydropyrido[4,3-d]pyrimidin-5(6H)-imine] | 33.3 | 118
Cc1ncc2c(n1)C[C@@](C)(c1cc(-c3cccc(C#N)c3)cs1)NC2=N [Example 23, 3-{5-[(7S)-5-imino-2,7-dimethyl-5,6,7,8-tetrahydropyrido[4,3-d]pyrimidin-7-yl]thiophen-3-yl}benzonitrile] | 151 | 87.9
Cc1ncc2c(n1)C[C@@](C)(c1sc(-c3cccc(C#N)c3)cc1Cl)NC2=N [Example 24, 3-{4-chloro-5-[(7S)-5-imino-2,7-dimethyl-5,6,7,8-tetrahydropyrido[4,3-d]pyrimidin-7-yl]thiophen-2-yl}benzonitrile] | 52.7 | 28
Cc1ncc2c(n1)C[C@@](C)(c1sc(-c3cncc(C#N)c3)cc1Cl)NC2=N [Example 25, 5-{4-chloro-5-[(7S)-5-imino-2,7-dimethyl-5,6,7,8-tetrahydropyrido[4,3-d]pyrimidin-7-yl]thiophen-2-yl}pyridine-3-carbonitrile] | 125 | 62.4
Cc1ncc2c(n1)C[C@@](C)(c1sc(-c3cccc(-c4nnco4)c3)cc1Cl)NC2=N [Example 26, (7S)-7-{3-chloro-5-[3-(1,3,4-oxadiazol-2-yl)phenyl]thiophen-2-yl}-2,7-dimethyl-7,8-dihydropyrido[4,3-d]pyrimidin-5(6H)-imine] | 10.6 | 29.1
Cc1ncc2c(n1)C[C@@](C)(c1sc(-c3ccc(F)c(C#N)c3)cc1Cl)NC2=N [Example 27, 5-{4-chloro-5-[(7S)-5-imino-2,7-dimethyl-5,6,7,8-tetrahydropyrido[4,3-d]pyrimidin-7-yl]thiophen-2-yl}-2-fluorobenzonitrile] | 52.1 | 28.3
Cc1ncc2c(n1)C[C@@](C)(c1sc(-c3cc(F)cc(-c4nnco4)c3)cc1Cl)NC2=N [Example 28, (7S)-7-{3-chloro-5-[3-fluoro-5-(1,3,4-oxadiazol-2-yl)phenyl]thiophen-2-yl}-2,7-dimethyl-7,8-dihydropyrido[4,3-d]pyrimidin-5(6H)-imine] | 16.6 | 24.4
